In patent US12351574B2, “Selective ligands for modulation of GIRK channels” (Northeastern University, priority 2018, dated 2025):

Target: T1, GIRK1/2 (UniProt P48542+P48549)
T1 sequence (P48549 1-501): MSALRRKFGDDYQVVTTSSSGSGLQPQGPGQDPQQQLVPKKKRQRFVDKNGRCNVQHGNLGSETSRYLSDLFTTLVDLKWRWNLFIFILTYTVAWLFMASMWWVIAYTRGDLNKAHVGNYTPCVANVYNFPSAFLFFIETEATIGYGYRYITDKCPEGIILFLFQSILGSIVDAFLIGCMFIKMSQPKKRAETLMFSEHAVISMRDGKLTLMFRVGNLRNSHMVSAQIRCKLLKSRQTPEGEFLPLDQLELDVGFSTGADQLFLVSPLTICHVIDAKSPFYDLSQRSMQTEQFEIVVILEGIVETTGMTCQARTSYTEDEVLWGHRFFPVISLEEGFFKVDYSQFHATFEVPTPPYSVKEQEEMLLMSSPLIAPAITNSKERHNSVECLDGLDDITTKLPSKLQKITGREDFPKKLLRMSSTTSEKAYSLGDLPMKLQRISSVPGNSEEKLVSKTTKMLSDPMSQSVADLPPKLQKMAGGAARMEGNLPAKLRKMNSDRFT
T1 sequence (P48542 1-425): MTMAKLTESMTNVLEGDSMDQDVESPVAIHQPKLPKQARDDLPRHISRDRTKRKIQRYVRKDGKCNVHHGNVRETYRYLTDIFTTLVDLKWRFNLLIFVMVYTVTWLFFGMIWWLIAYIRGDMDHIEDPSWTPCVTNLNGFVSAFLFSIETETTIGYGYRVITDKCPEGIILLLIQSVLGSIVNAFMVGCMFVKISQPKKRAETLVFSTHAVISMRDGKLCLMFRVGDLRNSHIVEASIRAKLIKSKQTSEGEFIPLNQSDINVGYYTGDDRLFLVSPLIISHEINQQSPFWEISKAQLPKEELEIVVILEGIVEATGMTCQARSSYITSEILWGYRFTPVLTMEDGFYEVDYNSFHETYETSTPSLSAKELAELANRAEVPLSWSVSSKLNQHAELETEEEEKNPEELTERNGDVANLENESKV
Assay: diC8-PIP2 concentration-response (NPo), inside-out macropatches from Xenopus oocytes, GIRK1/2
Assay type: cell-based, human GIRK1, mouse GIRK2
Design: expressed in transfected cells; host or cells: Xenopus laevis oocytes (cRNA injection)
Settings: in the presence of 10 μM compound; for EMAX of diC8-PIP2 response (NPo), GIRK1/2: control 5.7±0.3; for apparent affinity of GIRK1/2 channels to diC8-PIP2: control 36±7 μM
Description: The inventors next turned to inside-out macropatches from Xenopus oocytes to compare changes in the PIP2 sensitivity by examining diC8 concentration-responses in the absence and presence of saturating concentrations of each of the activating compounds. […] In FIG. 14B, the control plot overlays the GAT1508 and GAT1521 plots; only ML297 was able to left-shift the sensitivity of GIRK1/4 heteromers to PIP2, while both GAT1508 and GAT1521 were ineffective in changing the sensitivity of these heteromers to PIP2.
Xenopus laevis oocyte expression: Plasmid DNAs of GIRK channel subunits were linearized prior to in vitro transcription. Capped RNAs were transcribed using mMESSAGE mMACHINE T7 Transcription Kit (Thermo Fisher Scientific). Xenopus oocytes were surgically extracted, dissociated and defolliculated by collagenase treatment, and microinjected with 50 nl of a water solution containing 1 ng of each GIRK subunit RNA. For TEVC experiments, oocytes were kept 2 days at 17° C. before recording, while for NPo experiments oocytes were incubated for up to 4 days at 17° C.
Oocyte macropatch studies: Macropatch GIRK channel activity was recorded from devitellinized oocytes under the inside-out mode of standard patch clamp methods using an AM2400 patch clamp amplifier (A-M systems). […] Oocytes were bathed with a solution comprising (in mM): 96 KCl, 5 EGTA, 1 MgATP and 10 HEPES (pH 7.4). Current amplitudes were measured at −80 mV with a sampling rate of 10 kHz. Data were analyzed using WinEDR and Clampfit software (Molecular Devices).

Row | EMAX of diC8-PIP2 response (NPo), GIRK1/2 | apparent affinity of GIRK1/2 channels to diC8-PIP2 [µM] | Compound
1 | 10.5±0.3 | 5.5 ± 7 | Cc1cc(NC(=O)Nc2ccc(Br)s2)n(-c2ccccc2)n1 [GAT1508, 1-(5-bromothiophen-2-yl)-3-(3-methyl-1-phenyl-1H-pyrazol-5-yl)urea]
2 | 9.1±0.2 | 11 ± 2 | Cc1cc(NC(=O)Nc2ccc(C)s2)n(-c2ccccc2)n1 [GAT1521, 1-(3-methyl-1-phenyl-1H-pyrazol-5-yl)-3-(5-methylthiophen-2-yl)urea]
3 | 7.5±0.4 | 23 ± 5 | Cc1cc(NC(=O)Nc2ccc(F)c(F)c2)n(-c2ccccc2)n1 [ML297, reference compound]
